Experimental data taken from paper PMC9783868, “Indoline-5-Sulfonamides: A Role of the Core in Inhibition of Cancer-Related Carbonic Anhydrases, Antiproliferative Activity and Circumventing of Multidrug Resistance” (Pharmaceuticals, 2022).

Legend:
GLUT1 = experiment: Immunoblotting of hypoxia-induced protein expression in A431 cells; format: cell-based, human; conditions: hypoxia 24 h
Description: (§1) We wondered whether compound 4f affected CA IX expression or whether its activity was limited to inhibiting the enzyme activity reported above (Table 1). To induce CA IX expression, cells were placed in hypoxia for 24 h, and then protein expression was analyzed by immunoblotting. Because the data on the expression of hypoxia-related proteins in the literature are highly inconsistent, we introduced additional controls. Antibodies to hypoxia-regulated and “non-hypoxic” proteins were used. The expression of kinase Akt, which is not regulated directly by hypoxia/HIF-1α, was not altered under hypoxia conditions (Figure 5F). […] Thus, lead compound 4f not only blocks the enzyme activity of CA IX, but also causes partial inhibition of hypoxia-induced CA IX expression in skin cancer cells.
(§2) A431 cells were seeded on 100 mm dishes (Corning, Corning, NY, USA), and after 24 h growth, the compound 4f was added to a fresh medium. To prepare cell extracts, A431 cells were twice washed in phosphate buffer and incubated for 10 min on ice in the modified lysis buffer containing 50 mM Tris-HCl, pH 7.5, 0.5% Igepal CA-630, 150 mM NaCl, 1 mM EDTA, 1 mM DTT, 1 mM PMSF, 0.1 mM sodium orthovanadate and aprotinin, leupeptin and pepstatin (1 µg/mL each) as described earlier in the work. The protein content was determined by the Bradford method.
(§3) A431 cell lysates were separated in 10% SDS-PAGE under reducing conditions, transferred to a nitrocellulose membrane (GE HealthCare, Chicago, IL, USA), and processed according to a standard protocol. Akt, GLUT1, PD-L1, and CA IX antibodies were obtained from Cell Signaling Technology (Danvers, MA, USA); the antibodies against GAPDH (Cell Signaling Technology) were added to standardize loading. Goat anti-rabbit IgGs (Jackson ImmunoResearch, West Grove, PA, USA) conjugated to horseradish peroxidase were used as secondary antibodies. Signals were detected using the ECL reagent as described in Mruk and Cheng’s protocol and an ImageQuant LAS4000 system (GE HealthCare).

CA IX = experiment: as above; format: cell-based, human; conditions: hypoxia 24 h
Description: as §1, §2, §3

PD-L1 = experiment: as above; format: cell-based, human; conditions: hypoxia 24 h
Description: as §1, §2, §3

hCA XII = target: T1, hCA XII (Homo sapiens, UniProt O43570); experiment: CA inhibition, stopped-flow CO2 hydration assay; format: biochemical; conditions: stopped-flow technique; mean from three assays
T1 construct: made in house
Description: (§4) The CO2 hydration activity of the four hCA isoforms was monitored using an Applied Photophysics stopped-flow instrument. Phenol red (at a concentration of 0.2 mM) was used as an indicator, working at the absorbance maximum of 557 nm, with 10 mM HEPES (pH 7.4) as a buffer, and 20 mM NaClO4 (for maintaining constant the ionic strength), following the initial rates of the CA-catalyzed CO2 hydration reaction for a period of 10–100 s. To determine the kinetic parameters by Lineweaver-Burk plots and the inhibition constants, a concentration of CO2 between 1.7 to 17 mM was used. At least six measurements of the original 5–10% reaction were used to assess the initial velocity for each inhibitor. The uncatalyzed rates were determined and detracted from the total observed rates. Stock inhibitor solutions (10–100 mM) were prepared in distilled-deionized water, and dilutions up to 0.1 nM were done with the buffer test. […] The inhibition constants were obtained by non-linear least-squares methods using PRISM 6 and the Cheng-Prusoff equation, as reported earlier, and represent the mean from at least three different determinations.

hCA I = target: T2, hCA I (Homo sapiens, UniProt P00915); experiment: CA inhibition, stopped-flow CO2 hydration assay; format: biochemical; conditions: stopped-flow technique; mean from three assays
T2 construct: made in house
Description: as §4

hCA II = target: T3, hCA II (Homo sapiens, UniProt P00918); experiment: CA inhibition, stopped-flow CO2 hydration assay; format: biochemical; conditions: stopped-flow technique; mean from three assays
T3 construct: made in house
Description: as §4

hCA IX = target: T4, hCA IX (Homo sapiens, UniProt Q16790); experiment: CA inhibition, stopped-flow CO2 hydration assay; format: biochemical
T4 construct: made in house
Description: as §4

T2 sequence (P00915 whole entry): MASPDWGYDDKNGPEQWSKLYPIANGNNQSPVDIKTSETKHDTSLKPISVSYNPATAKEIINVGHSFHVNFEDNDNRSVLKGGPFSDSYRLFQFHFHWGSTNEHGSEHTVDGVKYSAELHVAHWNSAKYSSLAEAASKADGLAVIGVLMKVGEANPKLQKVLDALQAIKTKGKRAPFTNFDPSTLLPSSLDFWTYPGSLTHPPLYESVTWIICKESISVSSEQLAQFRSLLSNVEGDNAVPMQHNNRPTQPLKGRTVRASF
T1 sequence (O43570 25-354): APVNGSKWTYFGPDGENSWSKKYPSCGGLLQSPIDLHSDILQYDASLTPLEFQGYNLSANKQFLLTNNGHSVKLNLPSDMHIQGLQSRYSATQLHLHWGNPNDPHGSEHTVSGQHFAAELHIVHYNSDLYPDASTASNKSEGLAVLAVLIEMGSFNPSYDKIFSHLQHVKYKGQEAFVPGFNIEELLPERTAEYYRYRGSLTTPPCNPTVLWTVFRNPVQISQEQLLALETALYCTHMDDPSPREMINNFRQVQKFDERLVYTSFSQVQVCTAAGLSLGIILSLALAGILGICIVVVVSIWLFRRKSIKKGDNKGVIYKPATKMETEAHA

Ki (hCA XII): 112 nM
Ki (hCA I): 304 nM
Ki (hCA II): 31.3 nM
fold higher activity against CA IX compared with 4e (hCA IX; in vitro KI, 4f vs 4e): ~10 fold
Ki (hCA IX; stopped-flow technique, mean from three assays): 141 nM
Compound: NS(=O)(=O)c1ccc2c(c1)CCN2C(=O)c1cccc(Cl)c1 [Compound 4f, 1-(3-Chlorobenzoyl)indoline-5-sulfonamide]
GLUT1 expression in A431 cells (GLUT1): did not change
CA IX expression in A431 cells (CA IX): moderate decrease
PD-L1 expression in A431 cells (PD-L1): did not change
